# According to the supplement of paper PMC10307832:
# Compound: C1=CC2=C(C=C(C(=C2N=C1)O)N=NC3=CC4=C(C=C3)C=C(C=C4)S(=O)(=O)O)S(=O)(=O)O + C[C@]1(O)C[C@@H](c2nc(-c3ccc4ccc(-c5ccccc5)nc4c3)c3c(N)nccn32)C1 [Linsitinib] (partner 1 µM)
# Assay: relative viability (nuclei count vs DMSO), 5 days (fraction); higher = more cells survive
# Details: first compound 0.08 µM
# Outline: (§1)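 Relative viability is defined as nuclei in treated wells over nuclei in vehicle wells. Duplicate plates were run and medians reported. Lung cancer cell lines in 1536-well plates were dosed by pin tool one day after seeding, with one drug or with a fixed anchor-drug dose plus five library-drug doses (not always all listed) in √10 steps, and nuclei were counted after 5 days.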
row,Cell Line,relative viability
1,COR-L 105,0.931
2,IA-LM,0.822
3,LOU-NH91,0.991
4,NCI-H2405,0.909
5,HOP-62,0.992
6,HCC-44,0.708
7,A549,0.7
8,LU99A,0.613
9,NCI-H441,0.51
10,NCI-H1395,1.11
11,NCI-H1299,1.04
12,NCI-H1793,1.29

# Same assay, conditions: first compound 0.253 µM
row,Cell Line,relative viability
1,NCI-H727,0.287
2,EBC-1,0.878
3,NCI-H1993,0.694
4,SW 1573,0.734
5,NCI-H838,0.996
6,LCLC-103H,1.04
7,NCI-H520,1.12
8,NCI-H2126,0.688
9,EMC-BAC-2,0.821
10,NCI-H2085,0.927
11,Calu-6,0.976
12,HCC-366,0.578
13,NCI-H1666,0.831
14,NCI-H596,1.07
15,LK-2,0.724
16,NCI-H2087,1.12

row,Cell Line,relative viability
1,SK-MES-1,1.01
2,H3255,0.899
3,COR-L23,0.927
4,COR-L 105,0.939
5,IA-LM,0.68
6,LOU-NH91,0.988
7,NCI-H2405,0.873
8,HOP-62,0.893
9,HCC-44,0.66
10,A549,0.515
11,LU99A,0.559
12,NCI-H441,0.527
13,NCI-H1395,1.18
14,NCI-H1299,0.98
15,NCI-H1793,0.678

# Same assay, conditions: first compound 0.8 µM
row,Cell Line,relative viability
1,NCI-H727,0.371
2,EBC-1,0.796
3,NCI-H1703,0.821
4,NCI-H1993,0.653
5,SW 1573,0.816
6,NCI-H838,0.979
7,LCLC-103H,1
8,NCI-H520,1.07
9,NCI-H2126,0.718
10,EMC-BAC-2,0.825
11,NCI-H2085,0.978
12,Calu-6,0.911
13,HCC-366,0.678
14,NCI-H1666,0.74
15,NCI-H596,1.1
16,LK-2,0.551

row,Cell Line,relative viability
1,NCI-H2087,0.82
2,SK-MES-1,1.05
3,H3255,0.948
4,COR-L23,0.925
5,COR-L 105,1.04
6,IA-LM,0.472
7,LOU-NH91,0.957
8,NCI-H2405,0.943
9,HOP-62,1.01
10,HCC-44,0.664
11,A549,0.617
12,LU99A,0.552
13,NCI-H441,0.458
14,NCI-H1395,1.34
15,NCI-H1299,0.937

# Same assay, conditions: first compound 2.53 µM
row,Cell Line,relative viability
1,NCI-H727,0.32
2,EBC-1,0.945
3,NCI-H1703,0.371
4,NCI-H1993,0.702
5,SW 1573,0.875
6,NCI-H838,0.975
7,LCLC-103H,1.15
8,NCI-H520,0.968
9,NCI-H2126,0.752
10,EMC-BAC-2,0.823
11,NCI-H2085,0.821
12,Calu-6,0.926
13,HCC-366,0.603
14,NCI-H1666,0.84
15,NCI-H596,1.14
16,LK-2,0.573

row,Cell Line,relative viability
1,NCI-H2087,0.964
2,SK-MES-1,1.04
3,H3255,1.04
4,COR-L23,0.87
5,COR-L 105,0.985
6,IA-LM,0.755
7,LOU-NH91,0.973
8,NCI-H2405,1.04
9,HOP-62,1
10,HCC-44,0.702
11,A549,0.645
12,LU99A,0.528
13,NCI-H441,0.551
14,NCI-H1395,1
15,NCI-H1299,0.955
16,NCI-H1793,1.04

# Same assay, conditions: first compound 8 µM
row,Cell Line,relative viability
1,NCI-H727,0.269
2,EBC-1,0.915
3,NCI-H1703,0.959
4,NCI-H1993,0.717
5,SW 1573,0.75
6,NCI-H838,1.02
7,LCLC-103H,1.09
8,NCI-H520,1.01
9,NCI-H2126,0.731
10,EMC-BAC-2,0.8
11,NCI-H2085,0.892
12,Calu-6,0.969
13,HCC-366,0.648
14,NCI-H1666,0.673
15,NCI-H596,1.15
16,LK-2,0.472

row,Cell Line,relative viability
1,NCI-H2087,1.15
2,SK-MES-1,1.06
3,H3255,0.911
4,COR-L23,0.753
5,COR-L 105,1.01
6,IA-LM,0.568
7,LOU-NH91,0.891
8,NCI-H2405,0.948
9,HOP-62,0.926
10,HCC-44,0.698
11,A549,0.576
12,LU99A,0.522
13,NCI-H441,0.354
14,NCI-H1395,1.18
15,NCI-H1299,0.986
16,NCI-H1793,0.964

# Compound: C1=CC2=C(C=C(C(=C2N=C1)O)N=NC3=CC4=C(C=C3)C=C(C=C4)S(=O)(=O)O)S(=O)(=O)O + CS(=O)(=O)CCNCc1ccc(-c2ccc3ncnc(Nc4ccc(OCc5cccc(F)c5)c(Cl)c4)c3c2)o1 [Lapatinib] (partner 2 µM)
# Assay: as above
# Details: first compound 0.08 µM
# Outline: as §1
row,Cell Line,relative viability
1,NCI-H727,1.09
2,NCI-H1650,0.753
3,EBC-1,0.202
4,NCI-H1703,1.36
5,NCI-H1993,0.82
6,SW 1573,1.05
7,NCI-H838,1.29
8,NCI-H520,1.1
9,NCI-H2126,0.808
10,EMC-BAC-2,0.826
11,NCI-H2085,0.915
12,Calu-6,1.16
13,HCC-366,1.13
14,NCI-H1666,0.768
15,NCI-H596,1.11
16,LK-2,0.946
